Experiment in all cases: isobutanol oxidation kinetics
What all share (assay type): biochemical
What all share (details): 30° C., pH 8.8, 7.5 mM NAD

For experiment [1], the target named is T1, Beijerinckia indica subsp. Indica ATCC 9039 ADH (BiADH), SEQ ID NO: 31 (Beijerinckia indica, UniProt B2IGW3).
T1 sequence (B2IGW3 1-347): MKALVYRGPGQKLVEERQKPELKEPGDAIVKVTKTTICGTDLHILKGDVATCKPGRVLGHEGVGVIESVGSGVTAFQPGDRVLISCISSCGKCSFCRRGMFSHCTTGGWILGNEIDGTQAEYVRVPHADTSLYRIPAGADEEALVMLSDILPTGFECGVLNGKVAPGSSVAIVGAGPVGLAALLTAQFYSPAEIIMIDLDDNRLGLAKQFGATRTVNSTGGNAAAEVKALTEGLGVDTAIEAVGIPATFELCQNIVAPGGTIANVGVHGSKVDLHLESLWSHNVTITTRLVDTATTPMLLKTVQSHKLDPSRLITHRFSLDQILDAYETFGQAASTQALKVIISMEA
The method, then: (§1) As a routine practice, the crude extracts and purified proteins were assayed for butanol oxidation activity, in order to ensure that the recombinant proteins were active throughout the purification process. […] Alcohol oxidation activities were carried out in 50 mM sodium phosphate buffer at pH 8.8 and aldehyde reduction reactions were assayed in 190 mM potassium phosphate buffer at pH 7.0. Depending on the nature of reaction being carried out, the enzyme and cofactor stocks were diluted in the reaction buffers at the respective pHs. Either buffer or cell extract prepared from the proprietary E. coli strain (with no ADH plasmid) was used as the negative control for assays with purified protein and cell-free extracts, respectively.
(§2) Kinetic constants of the ADH enzymes were calculated and compared to identify those candidate ADH enzymes with the most desirable properties for the conversion of isobutyraldehyde to isobutanol in the last step of the engineered pathway for isobutanol production. The assays for determining the kinetic constants were carried out using initial rates from the assays described above. […] The concentration of a given enzyme was such that it was conducive for the measurement of initial velocities over a 1-min time course. For each enzyme, Michaelis-Menten plots were generated with a broad range of substrate concentrations. Rough estimates of KM were obtained, based on which the assays were redesigned so as to use substrate concentrations in the range 0.5 to 10 times the KM value, to be able to obtain the appropriate kinetic constants. […] When calculating the KI for isobutanol, the same reactions were carried out in the presence of varying concentrations of isobutanol (generally 0-535 mM) in the reaction (see FIG. 7, for example). Reactions with isobutanol substrate were performed at 30° C. in 50 mM Sodium phosphate buffer, pH 8.8, containing 7.5 mM NAD. The Enzyme kinetics module (Version 1.3) of SigmaPlot 11 (Systat Software, Inc.) was used to fit data to Michaelis-Menten equations and calculate the kinetic constants. The kcat/KM is derived from the individual numbers of kcat and KM and not an experimentally determined value. The ratios of the KM, KI, and kcat/KM for each candidate enzyme as compared to the same parameter for SadB are given in Table 9.
(§3) For those enzymes marked with an asterisk in Table 7, at least 3 assays were performed with separate preparations of the enzyme. All other numbers are values from either one assay or are averages from 2 assays performed with the same enzyme sample.

The test system of experiment [2] is Achromobacter xylosoxidans SadB (SadB), SEQ ID NO: 26. Here is the method: as §1, §2, §3
The target in experiment [3] is T2, horse liver ADH (HLADH), SEQ ID NO: 21 (Equus caballus, UniProt P00327).
T2 construct: purchased Sigma A-6128
Here is the method: as §1, §2, §3

T2 sequence (P00327 whole entry): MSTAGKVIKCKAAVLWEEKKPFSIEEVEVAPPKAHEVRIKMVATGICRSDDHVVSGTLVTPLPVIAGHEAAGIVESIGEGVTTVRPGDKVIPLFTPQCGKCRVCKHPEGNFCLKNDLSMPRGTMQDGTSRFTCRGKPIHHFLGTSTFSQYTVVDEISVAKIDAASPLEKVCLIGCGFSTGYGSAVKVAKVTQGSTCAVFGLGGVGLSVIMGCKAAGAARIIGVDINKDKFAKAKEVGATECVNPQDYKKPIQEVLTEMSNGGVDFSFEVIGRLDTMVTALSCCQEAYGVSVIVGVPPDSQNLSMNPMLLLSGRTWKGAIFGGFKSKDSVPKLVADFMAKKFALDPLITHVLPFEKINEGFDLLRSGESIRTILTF

For orientation: Km means the concentration of substrate that gives half-maximal velocity. Regarding `CC(C)CO` [isobutanol, 2-methylpropan-1-ol], the “kcat (isobutanol oxidation)” value in experiment [1] was “[Isobutanol oxidation: kcat = 9 sec^−1;”; in experiment [2], “[Isobutanol oxidation: kcat = 2 sec^−1;”; in experiment [3] it was “[Isobutanol oxidation: kcat = 5 sec^−1;”. In experiment [2], the Michaelis constant (Km) was 24 mM.

These data come from US8765433B2, “Alcohol dehydrogenases (ADH) useful for fermentive production of lower alkyl alcohols” (priority 2009, dated 2014).
